Twelve compounds from PMC7531004, “Discovery of gramicidin A analogues with altered activities by multidimensional screening of a one-bead-one-compound library” (Nature Communications, 2020) can be followed below.

The structures appear in SMILES notation. Where a SMILES comes first, the peptide text is derived from it. [ ]: non-standard residue; d: D form. The star is where a group is joined. NHCH2CH2OH = OCCN*; For = O=C*

Broadly, the viability is a read-out of living cells in per cent, often relative to untreated cells.

A short description of data set [1]: H+/Na+ transport assay of bead-derived peptides (one-point).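 Further: relative to parent gramicidin A activity set to 1.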 The class given is biochemical. Also on record: key: relative activity; mean of two control wells = 1.00. As to conditions: bead-derived peptide solution, EYPC/EYPG LUVs. In a few lines:
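One-point screen: peptide + pyranine-loaded LUVs, 30 min RT with vortexing, 96-well. Read-out is fluorescence intensity scaled as 100 × (Ix – I0)/(Imax – I0). Imax from Triton X-100, I0 from untreated vesicles, and the mean of the two control wells is set to 1.00.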

The conditions of data set [2]: cell viability/%. In a few lines:
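Peptide stocks diluted 250× in growth medium; P388 cells 1 × 10^4 cells/mL final; 37 °C, 5% CO2, 92 h. WST-1 + 1-methoxy PMS, 4 h, A415. Output: % viability.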

Data set [3] has as its system Streptococcus pyogenes SSI-9. Kind of data set: Antibacterial activity assay of bead-derived peptides (three concentrations). Also on record: key: +++: inhibition by the 640-fold diluted peptide solution; ++: inhibition by the 160-fold diluted solution; +: inhibition by the 40-fold diluted solution; -: no inhibition. The class given is cell-based. The conditions noted are these: S. pyogenes, bead-derived peptide solution, three concentrations. Summed up: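 First, each peptide stock was diluted 4- and 16-fold in DMSO; next, the three solutions were mixed with S. pyogenes SSI-9 suspension (2 × 10^5 CFU) in cation-adjusted Mueller Hinton Broth plus 5% laked horse blood; finally, plates stood 18 h at 37 °C before checking for grown-cell precipitation.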

`CC(C)C[C@@H](NC(=O)[C@H](Cc1c[nH]c2ccccc12)NC(=O)[C@H](NC(=O)[C@H](Cc1c[nH]c2ccccc12)NC(=O)[C@H](NC(=O)[C@H](Cc1c[nH]c2ccccc12)NC(=O)[C@H](NC(=O)[C@@H](NC(=O)[C@H](NC(=O)[C@H](C)NC(=O)[C@H](NC(=O)[C@H](C)NC(=O)CNC(=O)[C@@H](NC=O)C(C)C)C(C)C)C(C)C)C(C)C)[C@H](C)O)C(C)C)C(C)C)C(=O)N[C@@H](Cc1c[nH]c2ccccc12)C(=O)NCCO` [compound 5542] (For-VGA[dV]A[dV]V[dT]W[dV]W[dV]W[dL]W-NHCH2CH2OH): in data set [1], the “H+/Na+ transport activity normalized against the value of 1 (1.00)” value (shortened to “H+/Na+ transport activity normalized”) is listed as 1.17. In addition, the viability in data set [2] is 100%. Also, the antibacterial activity entry in data set [3] is listed as “-”.
Take `CC(C)C[C@@H](NC(=O)[C@H](C)NC(=O)CNC(=O)[C@@H](NC=O)C(C)C)C(=O)N[C@@H](C)C(=O)N[C@@H](C(=O)N[C@H](C(=O)N[C@@H](C(=O)N[C@@H](Cc1c[nH]c2ccccc12)C(=O)N[C@H](CC(C)C)C(=O)N[C@@H](Cc1c[nH]c2ccccc12)C(=O)N[C@@H](C(=O)N[C@@H](Cc1c[nH]c2ccccc12)C(=O)N[C@H](CC(C)C)C(=O)N[C@@H](Cc1c[nH]c2ccccc12)C(=O)NCCO)C(C)C)C(C)C)C(C)C)[C@H](C)O` [compound 5555] (For-VGA[dL]A[dT]V[dV]W[dL]W[dV]W[dL]W-NHCH2CH2OH): the “H+/Na+ transport activity normalized” value in data set [1] is 1.22. Further, the viability in data set [2] turned out to be 100%. For the same compound, the antibacterial activity entry in data set [3] was “-”.
In the case of `CC(C)C[C@@H](NC(=O)[C@H](C)NC(=O)CNC(=O)[C@@H](NC=O)C(C)C)C(=O)N[C@@H](C)C(=O)N[C@H](CC(C)C)C(=O)N[C@H](C(=O)N[C@H](CC(C)C)C(=O)N[C@@H](Cc1c[nH]c2ccccc12)C(=O)N[C@@H](C(=O)N[C@@H](Cc1c[nH]c2ccccc12)C(=O)N[C@H](CC(C)C)C(=O)N[C@@H](Cc1c[nH]c2ccccc12)C(=O)N[C@@H](C(=O)N[C@@H](Cc1c[nH]c2ccccc12)C(=O)NCCO)C(C)C)[C@H](C)O)C(C)C` [compound 5561] (For-VGA[dL]A[dL]V[dL]W[dT]W[dL]W[dV]W-NHCH2CH2OH), the “H+/Na+ transport activity normalized” value in data set [1] came to 1.05. Further, the viability in data set [2] stood at 100%. Moreover, the antibacterial activity entry in data set [3] is “-”.
The corresponding values for `CC(C)C[C@@H](NC(=O)[C@H](Cc1c[nH]c2ccccc12)NC(=O)[C@@H](CC(C)C)NC(=O)[C@@H](NC(=O)[C@H](NC(=O)[C@H](C)NC(=O)[C@H](NC(=O)[C@H](C)NC(=O)CNC(=O)[C@@H](NC=O)C(C)C)[C@H](C)O)C(C)C)C(C)C)C(=O)N[C@@H](Cc1c[nH]c2ccccc12)C(=O)N[C@@H](C(=O)N[C@@H](Cc1c[nH]c2ccccc12)C(=O)N[C@@H](C(=O)N[C@@H](Cc1c[nH]c2ccccc12)C(=O)NCCO)C(C)C)C(C)C` [compound 5563] (For-VGA[dT]A[dV]V[dL]W[dL]W[dV]W[dV]W-NHCH2CH2OH) are 1.08, 100% and “-”.
Turning to `CC(C)C[C@@H](NC(=O)[C@H](C)NC(=O)[C@H](NC(=O)[C@H](C)NC(=O)CNC(=O)[C@@H](NC=O)C(C)C)C(C)C)C(=O)N[C@H](C(=O)N[C@H](CC(C)C)C(=O)N[C@@H](Cc1c[nH]c2ccccc12)C(=O)N[C@@H](C(=O)N[C@@H](Cc1c[nH]c2ccccc12)C(=O)N[C@@H](C(=O)N[C@@H](Cc1c[nH]c2ccccc12)C(=O)N[C@H](CC(C)C)C(=O)N[C@@H](Cc1c[nH]c2ccccc12)C(=O)NCCO)C(C)C)[C@H](C)O)C(C)C` [compound 5572] (For-VGA[dV]A[dL]V[dL]W[dT]W[dV]W[dL]W-NHCH2CH2OH), the “H+/Na+ transport activity normalized” value in data set [1] stood at 1.24. This compound registered a viability in data set [2] of 100%. Also, the antibacterial activity result in data set [3] is listed as “+”.
As for `CC(C)C[C@@H](NC(=O)[C@H](C)NC(=O)CNC(=O)[C@@H](NC=O)C(C)C)C(=O)N[C@@H](C)C(=O)N[C@@H](C(=O)N[C@H](C(=O)N[C@@H](C(=O)N[C@@H](Cc1c[nH]c2ccccc12)C(=O)N[C@H](CC(C)C)C(=O)N[C@@H](Cc1c[nH]c2ccccc12)C(=O)N[C@@H](C(=O)N[C@@H](Cc1c[nH]c2ccccc12)C(=O)N[C@@H](C(=O)N[C@@H](Cc1c[nH]c2ccccc12)C(=O)NCCO)C(C)C)C(C)C)C(C)C)C(C)C)C(C)C` [compound 5587] (For-VGA[dL]A[dV]V[dV]W[dL]W[dV]W[dV]W-NHCH2CH2OH), the “H+/Na+ transport activity normalized” value in data set [1] is 1.23. In addition, the viability in data set [2] was 85.3%. Moreover, in data set [3], the antibacterial activity entry was “++”.
Regarding `CC(C)C[C@@H](NC(=O)[C@H](C)NC(=O)[C@H](NC(=O)[C@H](C)NC(=O)CNC(=O)[C@@H](NC=O)C(C)C)[C@H](C)O)C(=O)N[C@H](C(=O)N[C@H](CC(C)C)C(=O)N[C@@H](Cc1c[nH]c2ccccc12)C(=O)N[C@H](CC(C)C)C(=O)N[C@@H](Cc1c[nH]c2ccccc12)C(=O)N[C@H](CC(C)C)C(=O)N[C@@H](Cc1c[nH]c2ccccc12)C(=O)N[C@H](CC(C)C)C(=O)N[C@@H](Cc1c[nH]c2ccccc12)C(=O)NCCO)C(C)C` [compound 5618] (For-VGA[dT]A[dL]V[dL]W[dL]W[dL]W[dL]W-NHCH2CH2OH), in data set [1], the “H+/Na+ transport activity normalized” value was 1.13. This compound displayed a viability in data set [2] of 85.1%. For the same compound, the antibacterial activity entry in data set [3] is listed as “-”.
Regarding `CC(C)C[C@@H](NC(=O)[C@H](C)NC(=O)CNC(=O)[C@@H](NC=O)C(C)C)C(=O)N[C@@H](C)C(=O)N[C@@H](C(=O)N[C@H](C(=O)N[C@@H](C(=O)N[C@@H](Cc1c[nH]c2ccccc12)C(=O)N[C@@H](C(=O)N[C@@H](Cc1c[nH]c2ccccc12)C(=O)N[C@H](CC(C)C)C(=O)N[C@@H](Cc1c[nH]c2ccccc12)C(=O)N[C@@H](C(=O)N[C@@H](Cc1c[nH]c2ccccc12)C(=O)NCCO)C(C)C)[C@H](C)O)C(C)C)C(C)C)C(C)C` [compound 5657] (For-VGA[dL]A[dV]V[dV]W[dT]W[dL]W[dV]W-NHCH2CH2OH), the “H+/Na+ transport activity normalized” value in data set [1] is on record as 1.09. Besides, the viability in data set [2] turned out to be 81.3%. In data set [3], the antibacterial activity entry is given as “-”.
As to `CC(C)C[C@@H](NC(=O)[C@H](C)NC(=O)CNC(=O)[C@@H](NC=O)C(C)C)C(=O)N[C@@H](C)C(=O)N[C@H](CC(C)C)C(=O)N[C@H](C(=O)N[C@H](CC(C)C)C(=O)N[C@@H](Cc1c[nH]c2ccccc12)C(=O)N[C@@H](C(=O)N[C@@H](Cc1c[nH]c2ccccc12)C(=O)N[C@@H](C(=O)N[C@@H](Cc1c[nH]c2ccccc12)C(=O)N[C@H](CC(C)C)C(=O)N[C@@H](Cc1c[nH]c2ccccc12)C(=O)NCCO)[C@H](C)O)C(C)C)C(C)C` [compound 5736] (For-VGA[dL]A[dL]V[dL]W[dV]W[dT]W[dL]W-NHCH2CH2OH), the “H+/Na+ transport activity normalized” value in data set [1] is 1.11. Also, the viability in data set [2] stood at 95.5%. The antibacterial activity result in data set [3] is reported as “-”.
Consider `CC(C)C[C@@H](NC(=O)[C@H](Cc1c[nH]c2ccccc12)NC(=O)[C@H](NC(=O)[C@@H](NC(=O)[C@H](NC(=O)[C@H](C)NC(=O)[C@H](NC(=O)[C@H](C)NC(=O)CNC(=O)[C@@H](NC=O)C(C)C)C(C)C)C(C)C)C(C)C)C(C)C)C(=O)N[C@@H](Cc1c[nH]c2ccccc12)C(=O)N[C@H](CC(C)C)C(=O)N[C@@H](Cc1c[nH]c2ccccc12)C(=O)N[C@@H](C(=O)N[C@@H](Cc1c[nH]c2ccccc12)C(=O)NCCO)C(C)C` [compound 5742] (For-VGA[dV]A[dV]V[dV]W[dL]W[dL]W[dV]W-NHCH2CH2OH), for which, in data set [1], the “H+/Na+ transport activity normalized” value is given as 1.16. Besides, the viability in data set [2] turned out to be 11.1%. The antibacterial activity entry in data set [3] is listed as “++”.
For the compound `CC(C)C[C@@H](NC(=O)[C@H](C)NC(=O)CNC(=O)[C@@H](NC=O)C(C)C)C(=O)N[C@@H](C)C(=O)N[C@@H](C(=O)N[C@H](C(=O)N[C@@H](C(=O)N[C@@H](Cc1c[nH]c2ccccc12)C(=O)N[C@@H](C(=O)N[C@@H](Cc1c[nH]c2ccccc12)C(=O)N[C@H](CC(C)C)C(=O)N[C@@H](Cc1c[nH]c2ccccc12)C(=O)N[C@@H](C(=O)N[C@@H](Cc1c[nH]c2ccccc12)C(=O)NCCO)C(C)C)[C@H](C)O)[C@H](C)O)C(C)C)C(C)C` [compound 5747] (For-VGA[dL]A[dV]V[dT]W[dT]W[dL]W[dV]W-NHCH2CH2OH), the “H+/Na+ transport activity normalized” value in data set [1] is 1.09. In data set [2], this compound registered a viability of 100%. Besides, in data set [3], the antibacterial activity entry is “-”.
`CNC(=O)C[C@@H](NC(=O)[C@H](Cc1c[nH]c2ccccc12)NC(=O)[C@H](NC(=O)[C@@H](NC(=O)[C@@H](CC(C)C)NC(=O)[C@H](C)NC(=O)[C@H](NC(=O)[C@H](C)NC(=O)CNC(=O)[C@@H](NC=O)C(C)C)C(C)C)C(C)C)C(C)C)C(=O)N[C@@H](Cc1c[nH]c2ccccc12)C(=O)N[C@H](CC(C)C)C(=O)N[C@@H](Cc1c[nH]c2ccccc12)C(=O)N[C@H](CC(C)C)C(=O)N[C@@H](Cc1c[nH]c2ccccc12)C(=O)NCCO` [compound 5838] (For-VGA[dV]A[dL]V[dV]W[dD](NHMe)W[dL]W[dL]W-NHCH2CH2OH): in data set [1], the “H+/Na+ transport activity normalized” value is reported as 1.12. Further, in data set [2], the viability turned out to be 100%. In addition, the antibacterial activity entry in data set [3] is “-”.
